Experimental data reported in patent EP3892734B1, “SCREENING METHODS AND THERAPEUTIC APPLICATIONS BASED ON BACTERIAL MOTILITY INHIBITION” (Ludwig-Maximilians-Universität München, priority 2020, dated 2021).

Tested on: flagellin protein FlaA
Assay: Western immunoblot of flagellin FlaA in bacterial fractions
Assay type: cell-based, H. pylori
Conditions: Western blot, soluble and surface-associated fractions, time point T2
Description: • Fig. 1: Developing and establishing a screening system by primary luciferase-based reporter screen for flagellar expression and biosynthesis of H. pylori in multi-well plates and identification of active small compounds by the screen. A) Results of luciferase flagellar reporter screen for one exemplary library of more than 1200 compounds; each dot represents one compound result. […] Inhibitory as well as enhancing activities of the compounds were observed. Yellow markings depict the borders of the Z-factor, corresponding to the three-fold standard error of the positive (non-inhibited) controls. […] Tracking assays with H. pylori were performed in liquid medium (RPMI1640 with 3% horse serum) and movies recorded in a CELL-R live imaging system (Olympus, see methods). A) Stops/reversals during the swimming runs of the bacteria as a measure of intact taxis and directional motility and curvilinear velocity (CLV) were quantitated as described in (Behrens et al., 2016). […] Two different time points of an H. pylori growth curve in liquid BHI medium (3% yeast extract, 5% horse serum), T1 (early exponential) T2 (late exponential growth) were monitored for differences in protein expression in the presence (+) or absence of Active 2 compound. […] Highquality sequences obtained from cagL positive PCRs in the absence of positive culture are boxed; respective Sanger sequence reads are shown in B). […]

In the case of Cn1c(CSC(=N)N)c(Cl)c(=O)n1-c1ccccc1 [Active 2], the “amount of major flagellin FlaA” value is reported as “significant reduction of main flagellin FlaA at time point T2” and the “amount of major flagellin FlaA” value (listed as Active 2/BL2) is reported as “reduced the amounts of the major flagellin, FlaA”.
